Assays:
[1] = system: stomach cancer cell line NuGC-3; experiment: Trans-well cancer cell migration inhibition, NuGC-3; type: cell-based; details: for IC50: Homo sapiens, Gastric cancer cell NuGC-3, read-out: Concentration inhibiting migration of cancer cells by 50% (IC50 value)
Experimental: (§1) In order to analyze cancer cell migration inhibitory activity of CG-608, CG-609 or CG-618 prepared in Examples 1, 2, or 9, cell migration inhibitory activity was measured using a trans-well by targeting a colon cancer cell line DLD-1 (ATCC-CCL-221), pancreatic cancer cell lines AsPc-1 (ATCC-CCL-1682). CFPAC-1 (ATCC-CCL-1918). Panc-1 (ATCC-CCL-1469), and Miapaca-2 (ATCC-CCL-1420), a skin cancer cell line A375-P (ATCC-CCL-3224), lung cancer cell lines HCC-827 (ATCC-CCL-2868), A549 (ATCC-CCL-185), and NCI-H460 (ATCC-CCL-177), a prostate cancer cell line DU145 (ATCC-HTB-81), a stomach cancer cell line NuGC-3 (JCRB0822), and an ovarian cancer cell line SKOV-3 (ATCC-HTB-77).
(§2) First, the number of DLD-1 cells was measured using a hemocytometer in an RPMI medium without FBS. Thereafter, the trans-well was placed on a 24-well plate and 8×10^4 […] of cells were added. In an empty space with the trans-well on the well plate, […] of an RPM medium having 10% FBS containing CG-608, CG-609, or CG-618 was added and cultured in a CO2 incubator at 37° C. for 16 hours. After culture, […] of crystal violet (5 mg/mL of 20% […] was added to each well of the 24-well plate and the trans-well was dyed at room temperature for 30 minutes. The dyed trans-well was washed with PBS and non-migrated cells were wiped off with cotton swabs. The prepared sample was photographed with an inverted microscope mounted with a digital camera (TE 300, Nikon. Japan) and then the number of migrated cells was counted. The degree of inhibiting cell migration was calculated by Equation 1 for a group treated with the sample compared to a control group (DMSO).
(§3) In Equation 1, ‘the number of migrated cells treated with sample’ refers to the number of migrated cells measured by treating CG-608 or CG-618 of Example 1, and ‘the number of migrated cells of a control sample’ refers to the number of migrated cells measured by treating only 1% dimethyl sulfoxide (DMSO) instead of the compound.

[2] = system: pancreatic cancer cell line AsPc-1; experiment: Cytotoxicity / proliferation analysis (WST-1), AsPc-1; type: cell-based, human; details: AsPc-1, FIG. 8
Experimental: (§4) In order to verify cytotoxicity of CG-608 to CG-610 and CG-613 to CG-618 prepared in Examples 1 to 9, human colon cancer cell line DLD-1 cells (ATCC-CCL-221), pancreatic cancer cell line AsPc-1 cells (ATCC-CRL-1682), and normal cells MCF10A (ATCC-CRL-10317) were cultured in an RPMI medium containing 10% bovine fetal serum (FBS) while maintaining 37° C. and 5% CO2, and then the cells were detached using a 0.05% trypsin-EDTA. 4×10^3 cells calculated by a hematocytometer were inoculated in each well of a 96-well plate containing a 10% FBS containing medium and cultured in a 37° C. incubator containing 5% C2.
(§5) After 24 hours, the medium of each well was exchanged to a new medium containing a control group (0.1% DMSO) and CG-609 prepared in Example 1 or CG-618 prepared in Example 9 as a representative benproperine derivative at concentrations of 1 μM, 5 μM, and 10 μM. Thereafter, the cells were cultured in an incubator at 37° C. and 5% CO2 for 48 hours. Thereafter, […] of WST-1 (Roche) was added to each well and cultured for 2 hours, and then the absorbance was measured at 450 nm using an ELISA reader (Bio-Rad).

[3] = system: colon cancer cell line DLD-1; experiment: Trans-well cancer cell migration inhibition, DLD-1; type: cell-based, human; details: for IC50: Colon cancer cell DLD-1, trans-well, 16 hours, read-out: Concentration inhibiting migration of cancer cells by 50% (IC50 value)
Experimental: as §1, §2, §3

[4] = system: lung cancer cell line HCC-827; experiment: Trans-well cancer cell migration inhibition, HCC-827; type: cell-based; details: Homo sapiens, HCC827; for IC50: Lung cancer cell HCC-827, read-out: Concentration inhibiting migration of cancer cells by 50% (IC50 value)
Experimental: as §1, §2, §3

[5] = system: colon cancer cell line DLD-1; experiment: Cytotoxicity / proliferation analysis (WST-1), DLD-1; type: cell-based, human; details: DLD-1, FIG. 8
Experimental: as §4, §5

[6] = system: colon cancer cells DLD-1; experiment: Cancer cell invasion inhibition (Matrigel trans-well), DLD-1; type: cell-based; details: Homo sapiens, FIG. 8, read-out: Inhibition of cell invasion compared with DMSO-treated control
Experimental: In order to analyze cancer cell invasion inhibitory activity of CG-609 or CG-618 prepared in Example 1 or 9, cell invasion inhibitory activity using a trans-well was measured by targeting colon cancer cell line DLD-1 cells or pancreatic cancer cell line AsPc-1 cells.
Matrigel was diluted by 1/5 using an RPMI medium without FBS and then […] was put into each trans-well. The cells were coated in a […] for 2 hours. The number of DLD-1 cells was measured using a hemocytometer in an RPMI medium without FBS. Thereafter, the coated trans-well was placed on a 24-well plate and 8×10^4 […] of cells were added. In an empty space of the trans-well on the well plate, […] of an RPMI medium having 10% FBS containing (S)-(−)-benproperine was added and cultured in a CO2 incubator at 37° C. for 16 hours. After culture, […] of crystal violet (5 mg/mL of 20% MeOH) was added to each well of the 24-well plate and the trans-well was dyed at room temperature for 30 minutes. The dyed trans-well was washed with PBS and non-migrated cells were wiped off with cotton swabs. The prepared sample was photographed with an inverted microscope mounted with a digital camera (TE 300, Nikon, Japan), and then the number of migrated cells was counted. The degree of inhibiting cell migration was calculated for a group treated with the sample compared to a control group (DMSO).

[7] = system: normal cells MCF10A; experiment: Cytotoxicity analysis (WST-1), normal cells MCF10A; type: cell-based; details: for Cytotoxicity in normal cells: 1 μM, 5 μM, 10 μM, 48 hours, WST-1, FIG. 2; for Growth of normal cells: FIG. 2
Experimental: as §4, §5

[8] = system: skin cancer cell line A375-P; experiment: Trans-well cancer cell migration inhibition, A375-P; type: cell-based; details: Homo sapiens, A375P; for IC50: Skin cancer cell A375-P, read-out: Concentration inhibiting migration of cancer cells by 50% (IC50 value)
Experimental: as §1, §2, §3

[9] = system: pancreatic cancer cell line AsPc-1; experiment: Trans-well cancer cell migration inhibition, AsPc-1; type: cell-based; details: Homo sapiens, ASPC1; for IC50: Pancreatic cancer cell line AsPc-1, read-out: Concentration inhibiting migration of cancer cells by 50% (IC50 value)
Experimental: as §1, §2, §3

[10] = system: prostate cancer cell line DU145; experiment: Trans-well cancer cell migration inhibition, DU145; type: cell-based; details: for IC50: Homo sapiens, DU-145, Prostate cancer cell DU145, read-out: Concentration inhibiting migration of cancer cells by 50% (IC50 value)
Experimental: as §1, §2, §3

Row | Compound | IC50 [1] | Growth of cancer cells [2] | IC50 ([3]; Homo sapiens) | IC50 [4] | Growth of cancer cells [5] | inhibition at 0.5 µM ([6]; DLD-1, 500 nM) | Cytotoxicity in normal cells [7] | Growth of normal cells [7] | IC50 [8] | IC50 [9] | IC50 [10] | Inhibition of cell migration ([1]; NuGC-3, concentration not given, FIG. 3) | Cancer cell migration inhibitory activity relative to the benproperine derivative compound known in the related art ([3]; DLD-1) | inhibition at 0.05 µM ([3]; Homo sapiens, DLD-1, 50 nM, FIG. 4A) | inhibition at 1 µM ([3]; Homo sapiens, DLD-1, 1 μM, FIG. 3) | inhibition at 1 µM ([4]; HCC-827, 1 μM, FIG. 3) | inhibition at 0.1 µM ([6]; DLD-1, 100 nM) | inhibition at 1 µM ([8]; A375-P, 1 μM, FIG. 3) | inhibition at 1 µM ([9]; AsPc-1, 1 μM, FIG. 3) | Inhibition of cell migration ([10]; DU-145, concentration not given, FIG. 3)
1 | CC1CCCCN1C(C)COc1ccccc1Cc1ccccc1 (racemic) [CG-618, 1-(1-(2-benzylphenoxy)propan-2-yl)-2-methylpiperidine] | 8000 nM | did not affect the growth | 550 nM | 500 nM | did not affect the growth | ≥ 50% | did not exhibit cytotoxicity | did not inhibit | 3000 nM | 700 nM | 3000 nM | – | – | – | – | – | – | – | – | –
2 | C[C@H](COc1ccccc1Cc1ccccc1)N1CCCC[C@@H]1C [CG-609, (S)-1-((R)-1-(2-benzylphenoxy)propan-2-yl)-2-methylpiperidine] | 5000 nM | did not affect the growth | 60 nM | 210 nM | did not affect the growth | – | did not exhibit cytotoxicity | did not inhibit | 700 nM | 110 nM | 2000 nM | ≥ 50% | more than 20 times | ≥ 50% | ≥ 50% | ≥ 50% | ≥ 50% | ≥ 50% | ≥ 50% | ≥ 50%

From US11945779B2, “Inhibitors of cancer metastasis through inhibiting migration and invasion of cancer cells” (VSpharmtech, priority 2018, dated 2024)
